# According to patent US20240376073A1 (Hoffmann-La Roche Inc., priority 2021, published 2024):
# Structures can show the parent of a compound that is named as a salt.
# System: Acinetobacter baumannii ATCC17961
# Experiment: Antimicrobial susceptibility testing: 90% growth inhibitory concentration (IC90) determination
# Type: cell-based
# Details: Acinetobacter baumannii ATCC17961; Iso-Sensitest broth; growth by OD 600 nm over 16 h; 35±2° C.; read-out: ATCC 17961 IC90
# How it was run: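 Twofold serial dilutions (e.g. 50 to 0.097 μM final) in Iso-Sensitest broth, inoculated at ~5×10^(5) CFU/ml, incubated at 35±2° C. OD600 read every 20 min over 16 h; IC90 derived from growth inhibition during logarithmic growth.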
row,Compound,IC90
1,"Cn1c(-c2ccc(OC(F)F)c(F)c2F)cnc1C(=O)Nc1ccc(C(=O)N2CCN(C(=O)C3CC[N+](C)(CC4CNC4)CC3)CC2)c(Cl)c1 (stereo not shown) [Example C13, N-[4-[4-[1-(azet-idin-3-ylmeth-yl)-1-methyl-piper-idin-1-ium-4-carbonyl]piper-azine-1-carbon-yl]-3-chloro-phen-yl]-5-[4-(difluoro-methoxy)-2,3-difluoro-phenyl]-1-methyl-imid-azole-2-carbox-amide; 2,2,2-trifluoroacetate; 2,2,2-trifluoro-acetic acid]",73 nM
2,"Cn1c(-c2ccc(OC(F)F)c(F)c2F)cnc1C(=O)Nc1ccc(C(=O)N2CCN(C(=O)C3CC[N+](C)(CC4CCNC4)CC3)CC2)c(Cl)c1 (stereo not shown) [Example C14, N-[3-chloro-4-[4-[1-methyl-1-(pyrrolidin-3-yl-methyl)piperidin-1-ium-4-carbon-yl]piperazine-1-carbonyl]phenyl]-5-[4-(difluoro-methoxy)-2,3-difluoro-phenyl]-1-methyl-imid-azole-2-carbox-amide; formic acid; formate]",49 nM
3,"Cn1c(-c2ccc(OC(F)F)c(F)c2Cl)cnc1C(=O)Nc1ccc(C(=O)N2CCN(C(=O)C3CC[N+](C)(CC4CNC4)CC3)CC2)c(Cl)c1 (stereo not shown) [Example C15, N-[4-[4-[1-(azetidin-3-yl-methyl)-1-meth-yl-piperidin-1-ium-4-carbonyl]-piperazine-1-car-bonyl]-3-chloro-phenyl]-5-[2-chloro-4-(difluoro-methoxy)-3-fluoro-phenyl]-1-methyl-imidazole-2-carboxamide; formic acid; formate]",73 nM
4,"COc1ccc(-c2cnc(C(=O)Nc3ccc(C(=O)N4CCN(C(=O)C5CC[N+](C)(CC6CNC6)CC5)CC4)c(Cl)c3)n2C)c(F)c1F (stereo not shown) [Example C16, N-[4-[4-[1-(azet-idin-3-ylmethyl)-1-methyl-piper-idin-1-ium-4-carbonyl]piper-azine-1-carbon-yl]-3-chloro-phenyl]-5-(2,3-difluoro-4-meth-oxy-phenyl)-1-methyl-imid-azole-2-carbox-amide; formic acid; formate]",100 nM
5,"CCc1cc(NC(=O)c2ncc(-c3ccc(OC(F)F)c(F)c3F)n2C)ccc1C(=O)N1CCN(C(=O)C2CC[N+](C)(CC3CCNC3)CC2)CC1 (stereo not shown) [Example C17, 5-[4-(difluoro-methoxy)-2,3-difluoro-phenyl]-N-[3-ethyl-4-[4-[1-methyl-1-(pyr-rolidin-3-ylmeth-yl)piperidin-1-ium-4-carbonyl]-piperazine-1-carbonyl]phenyl]-1-methyl-imid-azole-2-carbox-amide; 2,2,2-trifluoroacetate; 2,2,2-trifluoro-acetic acid]",220 nM
6,"Cn1c(-c2ccc(OC(F)F)c(F)c2F)cnc1C(=O)Nc1ccc(C(=O)N2CCN(C(=O)CC3CC[N+](C)(CC4CCNC4)C3)CC2)c(Cl)c1 (stereo not shown) [Example C18, N-[3-chloro-4-[4-[2-[1-methyl-1-(pyrrolidin-3-yl-methyl)pyrrol-idin-1-ium-3-yl]-acetyl]piperazine-1-carbonyl]phen-yl]-5-[4-(difluoro-methoxy)-2,3-difluoro-phenyl]-1-methyl-imid-azole-2-carbox-amide; 2,2,2-trifluoroacetate; 2,2,2-trifluoro-acetic acid]",220 nM
7,CCc1cc(NC(=O)c2ncc(-c3ccc(OC(F)F)c(F)c3F)n2C)ccc1C(=O)N1CCN(C(=O)C2CC[N+](C)(CC3CNC3)CC2)CC1 (stereo not shown) [Example C19],270 nM
8,"CCc1cc(NC(=O)c2ncc(-c3ccc(OC(F)F)c(F)c3F)n2C)ccc1C(=O)N1CCN(C(=O)C2CC[N+](C)(CC3CCNCC3)CC2)CC1 (stereo not shown) [Example C20, 5-[4-(difluoro-methoxy)-2,3-difluoro-phenyl]-N-[3-ethyl-4-[4-[1-methyl-1-(4-piperidylmethyl)-piperidin-1-ium-4-carbonyl]-piperazine-1-carbonyl]phenyl]-1-methyl-imid-azole-2-carbox-amide; 2,2,2-trifluoroacetate; 2,2,2-trifluoro-acetic acid]",80 nM
9,CCc1cc(NC(=O)c2ncc(-c3ccc(OC(F)F)c(F)c3F)n2C)ccc1C(=O)N1CCN(C(=O)C2CC[N+](CC(N)=O)(CC3CNC3)CC2)CC1 (stereo not shown) [Example C21],220 nM
10,"COc1ccc(-c2cnc(C(=O)Nc3ccc(C(=O)NCc4cnn(CC5C[N+](C)(C)C5)c4)c(Cl)c3)n2C)c(F)c1F [Example C22, N-[3-chloro-4-[[1-[(1,1-dimethylazetidin-1-ium-3-yl)methyl]pyrazol-4-yl]methylcarbamoyl]phenyl]-5-(2,3-difluoro-4-methoxy-phenyl)-1-methyl-imidazole-2-carboxamide;formate]",230 nM
11,"COc1ccc(-c2cnc(C(=O)Nc3ccc(C(=O)NCc4c[n+](C)c(NC(=O)C[N+](C)(C)C)s4)c(Cl)c3)n2C)c(F)c1F [Example C23, [2-[[5-[[[2-chloro-4-[[5-(2,3-difluoro-4-methoxy-phenyl)-1-methyl-imidazole-2-carbonyl]amino]benzoyl]amino]methyl]-3-methyl-thiazol-3-ium-2-yl]amino]-2-oxo-ethyl]-trimethyl-ammonium;formate]",76 nM
12,"Cn1c(-c2ccc(OC(F)F)c(F)c2F)cnc1C(=O)Nc1ccc(C(=O)N2CCN(C(=O)C[N+]3(C)CCCC3)CC2)c(Cl)c1 [Example C25, N-[3-chloro-4-[4-[2-(1-methyl-pyrrolidin-1-ium-1-yl)acetyl]piper-azine-1-carbonyl]-phenyl]-5-[4-(difluorometh-oxy)-2,3-difluoro-phenyl]-1-methyl-imidazole-2-carboxamide; formate]",43 nM
13,"Cn1c(-c2ccc(OC(F)F)c(F)c2F)cnc1C(=O)Nc1ccc(C(=O)N2CCN(C(=O)C[N+]3(C)CCC(C(N)=O)C3)CC2)c(Cl)c1 (stereo not shown) [Example C26, N-[4-[4-[2-(3-carbamoyl-1-methyl-pyrrolidin-1-ium-1-yl)acet-yl]piperazine-1-carbonyl]-3-chloro-phenyl]-5-[4-(difluorometh-oxy)-2,3-difluoro-phenyl]-1-methyl-imidazole-2-carboxamide; formate]",69 nM
14,"COc1ccc(-c2cnc(C(=O)Nc3ccc(C(=O)N4CCN(C(=O)C[N+]5(C)CCOCC5)CC4)c(Cl)c3)n2C)c(F)c1F [Example C27, N-[3-chloro-4-[4-[2-(4-methyl-morpholin-4-ium-4-yl)acetyl]-piperazine-1-carbonyl]phenyl]-5-(2,3-difluoro-4-methoxy-phenyl)-1-methyl-imid-azole-2-carbox-amide; formate]",120 nM
15,"COc1ccc(-c2cnc(C(=O)Nc3ccc(C(=O)N4CCN(C(=O)C[N+]5(C)CCCC5)CC4)c(Cl)c3)n2C)c(F)c1F [Example C28, N-[3-chloro-4-[4-[2-(1-methylpyr-rolidin-1-ium-1-yl)acetyl]piper-azine-1-carbonyl]-phenyl]-5-(2,3-difluoro-4-meth-oxy-phenyl)-1-methyl-imidazole-2-carboxamide; formate]",130 nM

# Same assay, conditions: Acinetobacter baumannii, ATCC17961, 16 h, read-out: ATCC 17961 IC90, Acinetobacter baumannii ATCC17961; Iso-Sensitest broth; growth by OD 600 nm over 16 h; 35±2° C.
row,Compound,IC90
1,"Cn1c(-c2ccc(OC(F)F)c(F)c2F)cnc1C(=O)Nc1ccc(C(=O)N2CCN(C(=O)C[N+]3(C)CCNCC3)CC2)c(Cl)c1 [Example C24, N-[3-chloro-4-[4-[2-(1-methylpiperazin-1-ium-1-yl)acetyl]piperazine-1-carbonyl]phenyl]-5-[4-(difluoromethoxy)-2,3-difluoro-phenyl]-1-methyl-imidazole-2-carboxamide;2,2,2-trifluoroacetate;2,2,2-trifluoroacetic acid]",63 nM
